Laboratory results taken from paper PMC12413448, “Atomic resolution structures of the methane-activating enzyme in anaerobic methanotrophy reveal extensive post-translational modifications” (Nature Communications, 2025).

What was measured:
[1] = target: T1, MCR from ANME-2d^V (Methyl-Coenzyme M Reductase) (Candidatus Methanoperedens sp., UniProt Z9LNO2W1Q3+Z9MSE7NHP1+Z9ZZ61DSW2); experiment: X-ray crystal structure, […] Å; conditions: as isolated; mixture of ligands modelled in active site
T1 sequence (Z9MSE7NHP1 1-566): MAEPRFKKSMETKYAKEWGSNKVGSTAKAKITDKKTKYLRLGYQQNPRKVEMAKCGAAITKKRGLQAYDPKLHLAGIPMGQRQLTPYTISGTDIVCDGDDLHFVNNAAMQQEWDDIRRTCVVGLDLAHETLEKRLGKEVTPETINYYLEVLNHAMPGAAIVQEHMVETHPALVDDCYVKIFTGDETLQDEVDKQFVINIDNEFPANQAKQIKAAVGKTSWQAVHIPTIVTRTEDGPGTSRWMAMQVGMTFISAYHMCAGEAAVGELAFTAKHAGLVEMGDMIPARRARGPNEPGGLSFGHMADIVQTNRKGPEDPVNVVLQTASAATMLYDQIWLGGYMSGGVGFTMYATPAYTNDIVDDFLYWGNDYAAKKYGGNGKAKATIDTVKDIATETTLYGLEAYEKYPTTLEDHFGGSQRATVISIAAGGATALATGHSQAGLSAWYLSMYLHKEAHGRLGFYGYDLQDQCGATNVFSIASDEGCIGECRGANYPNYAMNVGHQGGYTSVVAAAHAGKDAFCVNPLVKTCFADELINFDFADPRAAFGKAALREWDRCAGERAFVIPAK
T1 sequence (Z9ZZ61DSW2 1-434): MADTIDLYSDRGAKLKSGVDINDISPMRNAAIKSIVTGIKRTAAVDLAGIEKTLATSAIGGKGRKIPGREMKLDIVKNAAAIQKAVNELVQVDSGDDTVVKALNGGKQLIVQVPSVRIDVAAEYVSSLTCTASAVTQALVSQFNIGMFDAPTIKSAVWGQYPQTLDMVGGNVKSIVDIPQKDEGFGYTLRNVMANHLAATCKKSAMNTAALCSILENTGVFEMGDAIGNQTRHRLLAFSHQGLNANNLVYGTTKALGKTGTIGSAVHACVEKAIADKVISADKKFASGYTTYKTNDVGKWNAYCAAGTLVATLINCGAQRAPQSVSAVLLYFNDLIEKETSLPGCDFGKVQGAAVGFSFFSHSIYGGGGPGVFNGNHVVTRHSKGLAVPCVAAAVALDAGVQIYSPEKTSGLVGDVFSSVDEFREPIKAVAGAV
T1 sequence (Z9LNO2W1Q3 1-249): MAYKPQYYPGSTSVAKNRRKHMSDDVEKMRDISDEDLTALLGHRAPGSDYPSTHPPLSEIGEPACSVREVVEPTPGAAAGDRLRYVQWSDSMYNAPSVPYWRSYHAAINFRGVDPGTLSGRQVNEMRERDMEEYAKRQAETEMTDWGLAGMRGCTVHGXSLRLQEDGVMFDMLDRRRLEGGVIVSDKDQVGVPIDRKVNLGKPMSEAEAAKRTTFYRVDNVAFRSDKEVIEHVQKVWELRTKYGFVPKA

[2] = target: T2, MCR from ANME-2d^O (Methyl-Coenzyme M Reductase) (Candidatus Methanoperedens sp. BLZ2, UniProt Z9I9A7LEW2+Z9NDC8PKK5+Z9T835AYK6); experiment: X-ray crystal structure, […] Å; type: binding; conditions: as isolated, trapped in active site; reduced thiol
T2 construct: native purification from bioreactor enrichment; (alpha beta gamma)2 dimer of heterotrimers; seven native PTMs including 3(S)-methylhistidine 159 on gamma; full length
T2 sequence (Z9T835AYK6 1-562): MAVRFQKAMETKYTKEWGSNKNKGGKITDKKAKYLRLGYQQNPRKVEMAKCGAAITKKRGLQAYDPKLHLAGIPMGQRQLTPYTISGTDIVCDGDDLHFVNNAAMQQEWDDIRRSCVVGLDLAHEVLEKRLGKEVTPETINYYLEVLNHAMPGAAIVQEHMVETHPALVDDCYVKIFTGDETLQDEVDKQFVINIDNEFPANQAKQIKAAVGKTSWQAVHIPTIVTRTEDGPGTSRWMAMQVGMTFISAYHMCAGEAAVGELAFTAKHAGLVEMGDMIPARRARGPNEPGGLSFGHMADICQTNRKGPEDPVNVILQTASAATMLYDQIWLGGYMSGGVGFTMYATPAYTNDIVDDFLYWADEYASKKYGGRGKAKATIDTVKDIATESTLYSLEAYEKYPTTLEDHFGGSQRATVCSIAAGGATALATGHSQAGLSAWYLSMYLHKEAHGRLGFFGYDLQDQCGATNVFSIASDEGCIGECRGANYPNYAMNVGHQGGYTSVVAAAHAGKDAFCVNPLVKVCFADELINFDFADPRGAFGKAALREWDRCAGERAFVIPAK
T2 sequence (Z9NDC8PKK5 1-434): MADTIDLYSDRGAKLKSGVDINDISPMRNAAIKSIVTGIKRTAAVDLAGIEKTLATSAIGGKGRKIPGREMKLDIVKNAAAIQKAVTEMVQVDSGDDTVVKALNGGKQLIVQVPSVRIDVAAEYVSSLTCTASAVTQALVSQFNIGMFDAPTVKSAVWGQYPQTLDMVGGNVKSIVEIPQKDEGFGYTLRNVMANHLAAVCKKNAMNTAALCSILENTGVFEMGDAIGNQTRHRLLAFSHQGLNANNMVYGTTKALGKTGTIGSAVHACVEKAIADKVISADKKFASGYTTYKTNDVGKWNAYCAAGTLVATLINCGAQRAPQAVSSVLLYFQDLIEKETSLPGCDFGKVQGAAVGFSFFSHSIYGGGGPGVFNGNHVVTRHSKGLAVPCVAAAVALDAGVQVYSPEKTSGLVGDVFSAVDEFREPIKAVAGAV
T2 sequence (Z9I9A7LEW2 1-249): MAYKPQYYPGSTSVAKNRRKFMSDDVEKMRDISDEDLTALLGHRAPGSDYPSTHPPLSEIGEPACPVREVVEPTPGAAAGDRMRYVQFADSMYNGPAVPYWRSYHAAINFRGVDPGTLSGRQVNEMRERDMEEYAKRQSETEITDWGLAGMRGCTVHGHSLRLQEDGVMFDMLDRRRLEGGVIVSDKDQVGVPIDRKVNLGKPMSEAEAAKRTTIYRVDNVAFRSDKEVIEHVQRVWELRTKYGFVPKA

Structure (SMILES) | X-ray crystal structure, 0.98 Å [1] | X-ray crystal structure, 0.98 Å [2]
C[C@@H](OP(=O)(O)O)[C@H](NC(=O)CCCCCCSSCCS(=O)(=O)O)C(=O)O [heterodisulfide] | optimal when the model included CoM-SH, CoB-SH, the heterodisulfide, and methyl-CoM | 
O=S(=O)(O)CCS [CoM-SH] | optimal when the model included CoM-SH, CoB-SH, the heterodisulfide, and methyl-CoM | MCRs from ANME-2c and ANME-2d^O contain reduced coenzymes trapped in the active site
C[C@@H](OP(=O)(O)O)[C@H](NC(=O)CCCCCCS)C(=O)O [CoB-SH] |  | MCRs from ANME-2c and ANME-2d^O contain reduced coenzymes trapped in the active site
